Our source for the IC50 values is ChEMBL document CHEMBL1144342, “Synthesis and structure-activity relationship of 4-substituted 2-(2-acetyloxyethyl)-8-(morpholine-4-sulfonyl)pyrrolo[3,4-c]quinoline-1,3-diones as potent caspase-3 inhibitors” (J Med Chem, 2005).

Molecules are shown by their SMILES.

Broadly, the IC50 is the concentration needed to halve the response being measured. A high value points to lower potency.

The test addresses T1, Caspase-3 (Homo sapiens, UniProt P42574).
T1 sequence (P42574 whole entry): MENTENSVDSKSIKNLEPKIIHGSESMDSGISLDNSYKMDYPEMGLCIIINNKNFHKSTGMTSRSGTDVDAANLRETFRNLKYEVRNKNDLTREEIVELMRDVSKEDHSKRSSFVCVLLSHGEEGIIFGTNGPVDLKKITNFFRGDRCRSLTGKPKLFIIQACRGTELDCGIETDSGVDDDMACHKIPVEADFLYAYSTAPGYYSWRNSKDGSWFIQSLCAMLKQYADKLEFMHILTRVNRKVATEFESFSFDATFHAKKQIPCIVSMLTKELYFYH
Briefly: In vitro inhibitory concentration against human caspase-3.
`CC(=O)OCCN1C(=O)c2c(/C=C/c3ccc(C(F)(F)F)cc3)nc3ccc(S(=O)(=O)N4CCOCC4)cc3c2C1=O` had an IC50 of 33 nM.
The figure for `CC(=O)OCCN1C(=O)c2c(N3CCOCC3)nc3ccc(S(=O)(=O)N4CCOCC4)cc3c2C1=O` is 15400 nM; for `CC(=O)OCCN1C(=O)c2c(-c3cccnc3)nc3ccc(S(=O)(=O)N4CCOCC4)cc3c2C1=O` it is 33 nM; for `CC(=O)OCCN1C(=O)c2c(C)nc3ccc(S(=O)(=O)N4CCOCC4)cc3c2C1=O` it is 23 nM.
For `CC(=O)OCCN1C(=O)c2c(-c3ccccc3)nc3ccc(S(=O)(=O)N4CCOCC4)cc3c2C1=O`, half-maximal inhibition (IC50) was put at 27 nM. The IC50 values of the last two molecules are within 1.5-fold of each other.
With `COC(=O)CS(=O)(=O)c1nc2ccc(S(=O)(=O)N3CCOCC3)cc2c2c1C(=O)N(CCOC(C)=O)C2=O`, it took 362 nM to reach half-maximal inhibition (IC50).
The molecule `COC(=O)C[S+]([O-])c1nc2ccc(S(=O)(=O)N3CCOCC3)cc2c2c1C(=O)N(CCOC(C)=O)C2=O` (configuration not stated) had a concentration for half-maximal inhibition (IC50) of 352 nM.
The figure for `CC(=O)OCCN1C(=O)c2c(Cl)nc3ccc(S(=O)(=O)N4CCOCC4)cc3c2C1=O` is 294 nM; for `CC(=O)OCCN1C(=O)c2c(C(C)C)nc3ccc(S(=O)(=O)N4CCOCC4)cc3c2C1=O` it is 40 nM.
The figure for `CC(=O)OCCN1C(=O)c2c(c3cc(S(=O)(=O)N4CCOCC4)ccc3[nH]c2=O)C1=O` is 10900 nM; for `CC(=O)OCCN1C(=O)c2c(-c3ccc(C(=O)N(C)C)cc3)nc3ccc(S(=O)(=O)N4CCOCC4)cc3c2C1=O` it is 58 nM; for `CC(=O)OCCN1C(=O)c2c(Nc3ccc(F)c(Cl)c3)nc3ccc(S(=O)(=O)N4CCOCC4)cc3c2C1=O` it is 27900 nM.
The figure for `CC(=O)OCCN1C(=O)c2c(-c3ccco3)nc3ccc(S(=O)(=O)N4CCOCC4)cc3c2C1=O` is 36 nM.
With `COC(=O)CSc1nc2ccc(S(=O)(=O)N3CCOCC3)cc2c2c1C(=O)N(CCOC(C)=O)C2=O`, the IC50 worked out at 1290 nM. Compared with the last molecule, the IC50 is about 36-fold higher.
In the case of `CCOC(=O)C[C@@H](Nc1nc2ccc(S(=O)(=O)N3CCOCC3)cc2c2c1C(=O)N(CCOC(C)=O)C2=O)C(=O)OCC` it was 5190 nM; in that of `CC(=O)OCCN1C(=O)c2c(-c3ccc(F)c(Cl)c3)nc3ccc(S(=O)(=O)N4CCOCC4)cc3c2C1=O`, 33 nM; in that of `CC(=O)OCCN1C(=O)c2c(SC(=N)N)nc3ccc(S(=O)(=O)N4CCOCC4)cc3c2C1=O`, 255 nM.
